Reference: ChEMBL document CHEMBL5463723, “Data for DCP probe BIBO3304” (2023)

Tests used:
[1] = target: Neuropeptide Y receptor type 4 (Homo sapiens, UniProt P50391); experiment: Radioligand binding assay (human NPY4R, CHO cells); format: cell-based
[2] = target: Neuropeptide Y receptor type 5 (Rattus norvegicus, UniProt Q63634); experiment: Radioligand binding assay (rat NPY5R, CHO cells); format: cell-based
[3] = target: T1, Neuropeptide Y receptor type 2 (Homo sapiens, UniProt P49146); experiment: Radioligand binding assay (NPY2R, SMS-KAN cells); format: cell-based
T1 sequence (P49146 whole entry): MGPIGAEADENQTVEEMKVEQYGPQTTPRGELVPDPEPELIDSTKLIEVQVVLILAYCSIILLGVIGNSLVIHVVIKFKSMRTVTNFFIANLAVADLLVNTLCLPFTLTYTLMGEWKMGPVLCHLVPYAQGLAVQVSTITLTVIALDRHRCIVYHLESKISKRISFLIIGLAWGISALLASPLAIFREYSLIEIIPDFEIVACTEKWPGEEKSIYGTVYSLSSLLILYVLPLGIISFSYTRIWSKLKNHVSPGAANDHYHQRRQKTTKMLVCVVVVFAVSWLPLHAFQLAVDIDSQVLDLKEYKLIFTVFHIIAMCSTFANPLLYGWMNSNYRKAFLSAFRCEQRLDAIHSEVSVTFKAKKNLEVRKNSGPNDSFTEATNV

[4] = target: T1, Neuropeptide Y receptor type 2; experiment: Radioligand binding assay (NPY2R, BHK); format: cell-based, BHK-21
[5] = target: Neuropeptide Y receptor type 4 (Rattus norvegicus, UniProt Q63447); experiment: Radioligand binding assay (rat NPY4R, CHO cells); format: cell-based
Neuropeptide Y receptor type 4 (Rattus norvegicus, UniProt Q63447), sequence (Q63447 whole entry): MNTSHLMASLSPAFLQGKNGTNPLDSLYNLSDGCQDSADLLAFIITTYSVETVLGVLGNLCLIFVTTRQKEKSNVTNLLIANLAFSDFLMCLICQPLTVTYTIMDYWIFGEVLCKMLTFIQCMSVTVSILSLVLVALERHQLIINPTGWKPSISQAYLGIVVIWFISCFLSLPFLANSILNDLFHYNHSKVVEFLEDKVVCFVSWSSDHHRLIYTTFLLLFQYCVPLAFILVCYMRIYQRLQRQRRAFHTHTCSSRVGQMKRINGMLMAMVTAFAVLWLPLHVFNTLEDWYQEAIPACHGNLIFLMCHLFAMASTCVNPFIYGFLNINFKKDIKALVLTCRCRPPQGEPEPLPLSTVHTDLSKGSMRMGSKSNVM

[6] = target: Neuropeptide Y receptor type 5 (Homo sapiens, UniProt Q15761); experiment: Radioligand binding assay (human NPY5R, HEK293); format: cell-based
Neuropeptide Y receptor type 5 (Homo sapiens, UniProt Q15761), sequence (Q15761 whole entry): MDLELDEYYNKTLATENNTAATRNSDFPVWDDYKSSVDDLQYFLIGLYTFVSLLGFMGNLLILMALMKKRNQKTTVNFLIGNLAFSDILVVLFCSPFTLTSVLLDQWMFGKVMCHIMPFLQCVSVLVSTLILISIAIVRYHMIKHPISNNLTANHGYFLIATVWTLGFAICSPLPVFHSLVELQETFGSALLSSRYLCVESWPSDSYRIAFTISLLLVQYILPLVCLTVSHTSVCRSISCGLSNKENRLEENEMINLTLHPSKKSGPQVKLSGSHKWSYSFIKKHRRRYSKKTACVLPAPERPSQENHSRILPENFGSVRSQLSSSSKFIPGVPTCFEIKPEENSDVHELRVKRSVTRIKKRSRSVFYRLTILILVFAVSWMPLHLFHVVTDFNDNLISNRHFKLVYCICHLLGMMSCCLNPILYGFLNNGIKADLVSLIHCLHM

Neuropeptide Y receptor type 5 (Rattus norvegicus, UniProt Q63634), sequence (Q63634 whole entry): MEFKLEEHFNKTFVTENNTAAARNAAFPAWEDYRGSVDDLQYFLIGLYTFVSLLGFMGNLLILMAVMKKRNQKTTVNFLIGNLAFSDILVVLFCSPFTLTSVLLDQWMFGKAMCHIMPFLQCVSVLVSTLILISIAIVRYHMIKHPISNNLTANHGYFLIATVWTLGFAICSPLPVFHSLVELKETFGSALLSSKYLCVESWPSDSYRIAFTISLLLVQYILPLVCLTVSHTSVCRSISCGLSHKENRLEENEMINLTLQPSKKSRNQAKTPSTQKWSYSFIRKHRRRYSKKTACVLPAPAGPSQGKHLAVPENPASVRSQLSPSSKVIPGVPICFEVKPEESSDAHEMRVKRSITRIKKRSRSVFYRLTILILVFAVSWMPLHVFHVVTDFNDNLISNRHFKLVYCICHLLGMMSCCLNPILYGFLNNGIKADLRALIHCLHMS
Neuropeptide Y receptor type 4 (Homo sapiens, UniProt P50391), sequence (P50391 whole entry): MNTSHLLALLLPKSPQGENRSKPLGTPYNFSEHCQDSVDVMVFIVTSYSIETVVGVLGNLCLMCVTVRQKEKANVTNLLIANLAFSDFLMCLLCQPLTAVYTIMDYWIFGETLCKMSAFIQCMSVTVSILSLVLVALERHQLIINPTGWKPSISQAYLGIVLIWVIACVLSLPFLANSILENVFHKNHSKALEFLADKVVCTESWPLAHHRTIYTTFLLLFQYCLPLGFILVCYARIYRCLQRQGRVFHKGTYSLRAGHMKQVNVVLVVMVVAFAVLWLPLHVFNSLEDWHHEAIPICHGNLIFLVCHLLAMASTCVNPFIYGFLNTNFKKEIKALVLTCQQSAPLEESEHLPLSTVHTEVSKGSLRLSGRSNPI

## N=C(N)NCCC[C@H](NC(=O)C(c1ccccc1)c1ccccc1)C(=O)NCc1ccc(CNC(N)=O)cc1
[1]
  IC50: 24 µM (not active)
[2]
  IC50: 23 µM (not active)
[3]
  IC50: > 10 µM (not active)
[4]
  IC50: > 10 µM (not active)
[5]
  IC50: > 10 µM (not active)
[6]
  IC50: 28 µM (not active)
